Assay results taken from article PMC6379498, “Radiosynthesis and in vivo evaluation of ^11C-labeled BMS-193885 and its desmethyl analog as PET tracers for neuropeptide Y1 receptors” (EJNMMI Radiopharmacy and Chemistry, 2019).

Assays:
[1] = Analysis of metabolites in mouse plasma (radio-HPLC); type: in vivo, mice
Experimental: [^11C]1 (37–56 MBq/0.73–0.95 nmol) or [^11C]2 (46–61 MBq/1.1–1.5 nmol) was intravenously injected into mice (aged 7–9 weeks, weighing 33–43 g, n = 4). Mice were euthanized by cervical dislocation at 30 min post-injection. Blood samples taken by heart puncture were collected into heparinized syringes. Samples were centrifuged at 13,000×g (Model 5500, KUBOTA, Tokyo, Japan) for 3 min at 4 °C to obtain plasma (0.1–0.2 mL). Plasma samples were added to equivalent volumes of 1 mol/L ammonium acetate solution. Samples were directly loaded into the injector loop, and analyzed using the combination of column-switching HPLC and on-line solid-phase extraction as a modification of the previously described procedures (Chitneni et al. [2008]; Gillings [2009]; Greuter et al. [2005]; Hilton et al. [2000]; Kawamura et al. [2013]). HPLC analysis was performed using the radio-HPLC system for metabolite analysis mentioned in the ‘General’ section above, and also using a Cadenza HS-C18 column (3 μm mesh, 10 mm i.d. × 150 mm length; Imtakt, Kyoto, Japan) fitted with a Cadenza HS-C18 guard cartridge (3 μm mesh, 10 mm i.d. × 8 mm length; Imtakt). Elution was performed using a 0.1 mol/L ammonium acetate solution for 3 min after loading, a mixture of 90% acetonitrile solution and water (0:100 to 40:60, vol./vol.) from 3 to 4 min after loading, and then a mixture of 90% acetonitrile solution and water (40:60, vol./vol.) from 4 to 12 min after loading. The flow rate was 4 mL/min. The retention times of [^11C]1 and [^11C]2 were 10.0 and 10.5 min, respectively.

[2] = Biodistribution of radioactivity in mice after tracer injection; type: in vivo; conditions: mean±S.D. n=4
Experimental: [^11C]1 (13 MBq/0.12 nmol) or [^11C]2 (15 MBq/0.36 nmol) was intravenously injected into mice (aged 7–8 weeks, weighing 33–38 g, n = 4). Mice were euthanized by cervical dislocation at 5, 15, 30, or 60 min post-injection.
(§1) Blood samples were collected by heart puncture. Tissues were dissected and weighed. The radioactivity in samples was measured with an automatic gamma counter (Wizard 3′′ 1480, PerkinElmer, Waltham, MA, USA). The tissue uptake of radioactivity was expressed as the percentage of injected dose detected per gram of sample (%ID/g, tissue radioactivity/g tissue/injected radioactivity × 100).

P-gp and BCRP = experiment: Effect of pretreatment with elacridar on tissue distribution of radioactivity; type: in vivo, mice; conditions: 30 min post-injection, elacridar 5 mg/kg 20-30 min before tracer, vs control
Experimental: The effects of pretreatment with 1 (BMS-193885) or the ABC transporter-inhibitor elacridar (inhibiting drug efflux transporters, mainly P-gp and BCRP) on tissue distributions of radioactivity were investigated. [^11C]1 (7.1–14 MBq/0.079–0.23 nmol) or [^11C]2 (6.0 MBq/0.16 nmol) was intravenously injected into mice (aged 7–8 weeks, weighing 32–36 g, n = 4–8) 20–30 min after the administration of the solution of 1 (10 mg/kg body weight [b.w.]/0.1 mL water containing 20% Tween 80), elacridar (5 mg/kg b.w./0.1 mL water), or a control fluid (0.1 mL water). Mice were euthanized by cervical dislocation at 30 min post-injection.
as §1

In the case of `COC(=O)C1=C(C)NC(C)=C(C(=O)OC)C1c1cccc(NC(=O)NCCCN2CCC(c3cccc(O[11CH3])c3)CC2)c1` [[^11C]1], the “Percentage of intact tracer in plasma” value ([1]; mouse plasma, 30 min post-injection, radio-HPLC, n=4) is reported as 11.8 ± 2.5%, the “Metabolism in vivo (mouse plasma)” value ([1]; within 30 min post-injection) is reported as “rapidly metabolized” and the “Radioactivity level, blood” value ([2]; 5 min after i.v. injection) is reported as 0.76±0.07 %ID/g. The “Radioactivity level, blood” value ([2]; 15 min after i.v. injection) was 0.60±0.06 %ID/g, the “Radioactivity level, blood” value ([2]; 30 min after i.v. injection) was 0.50±0.04 %ID/g and the “Radioactivity level, blood” value ([2]; 60 min after i.v. injection) was 0.46±0.06 %ID/g. The “Radioactivity level, brain” value ([2]; 5 min after i.v. injection) was 0.21±0.01 %ID/g, the “Radioactivity level, brain” value ([2]; 15 min after i.v. injection) was 0.40±0.06 %ID/g and the “Radioactivity level, brain” value ([2]; 30 min after i.v. injection) was 0.32±0.05 %ID/g. For the same molecule, the “Radioactivity level, brain” value ([2]; 60 min after i.v. injection) was 0.32±0.05 %ID/g, the “Radioactivity level, heart” value ([2]; 5 min after i.v. injection) was 1.93±0.23 %ID/g and the “Radioactivity level, heart” value ([2]; 15 min after i.v. injection) was 1.38±0.04 %ID/g. For the same molecule, the “Radioactivity level, heart” value ([2]; 30 min after i.v. injection) was 1.10±0.05 %ID/g, the “Radioactivity level, heart” value ([2]; 60 min after i.v. injection) was 0.82±0.07 %ID/g and the “Radioactivity level, kidney” value ([2]; 5 min after i.v. injection) was 17.41±1.12 %ID/g. The “Radioactivity level, kidney” value ([2]; 15 min after i.v. injection) was 14.06±1.00 %ID/g, the “Radioactivity level, kidney” value ([2]; 30 min after i.v. injection) was 12.93±1.01 %ID/g and the “Radioactivity level, kidney” value ([2]; 60 min after i.v. injection) was 13.37±2.72 %ID/g. The “Radioactivity level, liver” value ([2]; 5 min after i.v. injection) was 16.09±1.85 %ID/g, the “Radioactivity level, liver” value ([2]; 15 min after i.v. injection) was 8.82±2.28 %ID/g and the “Radioactivity level, liver” value ([2]; 30 min after i.v. injection) was 5.05±0.40 %ID/g. The “Radioactivity level, liver” value ([2]; 60 min after i.v. injection) was 4.09±1.60 %ID/g, the “Radioactivity level, lung” value ([2]; 5 min after i.v. injection) was 5.08±1.12 %ID/g and the “Radioactivity level, lung” value ([2]; 15 min after i.v. injection) was 3.43±0.28 %ID/g. The “Radioactivity level, lung” value ([2]; 30 min after i.v. injection) was 2.72±0.21 %ID/g, the “Radioactivity level, lung” value ([2]; 60 min after i.v. injection) was 2.13±0.36 %ID/g and the “Radioactivity level, muscle” value ([2]; 5 min after i.v. injection) was 0.64±0.05 %ID/g. For the same molecule, the “Radioactivity level, muscle” value ([2]; 15 min after i.v. injection) was 0.57±0.08 %ID/g, the “Radioactivity level, muscle” value ([2]; 30 min after i.v. injection) was 0.52±0.11 %ID/g and the “Radioactivity level, muscle” value ([2]; 60 min after i.v. injection) was 0.47±0.07 %ID/g. For the same molecule, the “Radioactivity level, pancreas” value ([2]; 5 min after i.v. injection) was 3.40±0.46 %ID/g, the “Radioactivity level, pancreas” value ([2]; 15 min after i.v. injection) was 3.75±0.35 %ID/g and the “Radioactivity level, pancreas” value ([2]; 30 min after i.v. injection) was 3.64±0.22 %ID/g. The “Radioactivity level, pancreas” value ([2]; 60 min after i.v. injection) was 3.70±0.41 %ID/g, the “Radioactivity level, small intestine” value ([2]; 5 min after i.v. injection) was 6.98±2.37 %ID/g and the “Radioactivity level, small intestine” value ([2]; 15 min after i.v. injection) was 9.11±1.31 %ID/g. For the same molecule, the “Radioactivity level, small intestine” value ([2]; 30 min after i.v. injection) was 11.02±1.44 %ID/g, the “Radioactivity level, small intestine” value ([2]; 60 min after i.v. injection) was 12.43±1.54 %ID/g and the “Radioactivity level, spleen” value ([2]; 5 min after i.v. injection) was 3.18±0.67 %ID/g. The “Radioactivity level, spleen” value ([2]; 15 min after i.v. injection) was 2.05±0.17 %ID/g, the “Radioactivity level, spleen” value ([2]; 30 min after i.v. injection) was 1.66±0.04 %ID/g and the “Radioactivity level, spleen” value ([2]; 60 min after i.v. injection) was 1.41±0.24 %ID/g. For the same molecule, the “Change of radioactivity level in blood by pretreatment with elacridar” value (P-gp and BCRP; blood) was “significantly increased”, the “Change of radioactivity level in brain by pretreatment with elacridar” value (P-gp and BCRP; brain) was “significantly increased” and the “Change of radioactivity level in heart by pretreatment with elacridar” value (P-gp and BCRP; heart) was “significantly increased”. For the same molecule, the “Change of radioactivity level in kidney by pretreatment with elacridar” value (P-gp and BCRP; kidney) was “significantly decreased”, the “Change of radioactivity level in lung by pretreatment with elacridar” value (P-gp and BCRP; lung) was “significantly increased” and the “Change of radioactivity level in muscle by pretreatment with elacridar” value (P-gp and BCRP; muscle) was “significantly increased”.
